Laboratory results from PMC9271048, “Probing strigolactone perception mechanisms with rationally designed small-molecule agonists stimulating germination of root parasitic weeds” (Nature Communications, 2022).
Where two headings read alike, the source gives them in different places.

Legend:
ShHTL7 [1] = target: T1, ShHTL7 (Striga hermonthica, UniProt A0A0M3PNA2); experiment: Competitive inhibition of ShHTL7 with Yoshimulactone Green (YLG) as substrate; assay type: biochemical
Outline: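 YLG hydrolysis by ShHTL7 followed by fluorescence (ex 480/em 520 nm) every 1 min for 30 min; compounds and YLG from fresh DMSO stocks. After subtracting no-enzyme background, the linear 8-min increase was used; IC50 fitted from relative inhibition versus compound concentration.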

[2] = tested on: ShHTLs (10 HTL proteins in S. hermonthica); experiment: YLG-based competition assay on HTL proteins of S. hermonthica; assay type: biochemical, Striga hermonthica; settings: Supplementary Fig. 27
Outline: (§1)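 Competition with fluorogenic substrate YLG ([…]) for hydrolysis by each HTL or KAI2 protein; fluorescence (Ex 480/Em 520 nm) recorded every 1 min for 30 min. Linear 8-min increase, background hydrolysis subtracted, used; IC50 from fitted relative inhibition versus concentration.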

[3] = Chemical reactivity analysis (HPLC, methanol/PBS pH 7.4); assay type: physicochemical; settings: methanol/phosphate-buffered saline mixture; Supplementary Fig. 10 source data; methanol/PBS pH 7.4, 26 °C; read-out: half-life time (t1/2), source data average (converted)
Outline: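 Samples were diluted into 10 mM PBS pH 7.4 with methanol and kept at 26 ± 1 °C. The remaining compound was followed by C18 HPLC (CH3CN/H2O 50:50 with 0.1% HCO2H, 1 mL/min). Half-lives were derived from the percentage remaining, calculated from peak areas.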

[4] = tested on: PaKAI2s (5 KAI2 protein homologs in P. aegyptiaca); experiment: YLG-based competition assay on KAI2 protein homologs of P. aegyptiaca; assay type: biochemical, Phelipanche aegyptiaca; settings: Supplementary Fig. 27
Outline: as §1

ShHTL7 [5] = target: T1, ShHTL7; experiment: biochemical; assay type: binding; settings: Supplementary Table 7; binding affinities between ShHTL7 and agonists by SPR; read-out: KD/μM
Outline: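 Surface plasmon resonance was run at 25 °C on ShHTL7 immobilized by amine coupling, using phosphate-buffered saline with 0.05% P20 and 0.5% DMSO. Each injection had 1 min association and 1 min dissociation, with a 50 μM screen followed by concentration series. KD was derived by kinetic analysis or steady-state affinity.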

T1 sequence (A0A0M3PNA2 entry or part of it): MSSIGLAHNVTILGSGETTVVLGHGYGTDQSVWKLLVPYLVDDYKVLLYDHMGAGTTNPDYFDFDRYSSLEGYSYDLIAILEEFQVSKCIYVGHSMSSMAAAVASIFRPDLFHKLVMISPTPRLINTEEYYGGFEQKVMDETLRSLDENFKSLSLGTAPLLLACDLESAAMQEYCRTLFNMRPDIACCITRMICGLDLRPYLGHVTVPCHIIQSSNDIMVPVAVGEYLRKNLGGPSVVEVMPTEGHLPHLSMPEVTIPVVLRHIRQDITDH

## CC1=C[C@H](OC(=O)N2CCN(C(=O)COc3ccc(Br)cc3C)CC2)OC1=O [(S)-4a]
ShHTL7 [1]; ShHTL7, YLG competition, Supplementary Fig. 27, read-out: IC50, replicate 1
  IC50: 1.06 µM
ShHTL7 [1]; ShHTL7, YLG competition, Supplementary Fig. 27, read-out: IC50, replicate 2
  IC50: 0.837 µM
ShHTL7 [1]; ShHTL7, YLG competition, Supplementary Fig. 27, read-out: IC50, replicate 3
  IC50: 0.921 µM
ShHTL7 [1]; ShHTL7, average of 3 replicates, Supplementary Fig. 27, read-out: IC50, average
  IC50: 0.938 µM
ShHTL7 [1]; YLG as substrate, text and Fig. 2, read-out: IC50, competitive ShHTL7 inhibition (YLG assay)
  IC50: 0.94 ± 0.11 µM
ShHTL7 [1]; wild-type ShHTL7, average of 3, source data of Fig. 2a,b, Supplementary Figs. 8a, 9a, 20b, read-out: IC50, competitive ShHTL7 inhibition (YLG), source data average
  IC50: 0.938 µM
[2]; ShHTL2, YLG competition, read-out: IC50, replicate 1
  IC50: 44 µM
[2]; ShHTL2, YLG competition, read-out: IC50, replicate 2
  IC50: 49.8 µM
[2]; ShHTL2, YLG competition, read-out: IC50, replicate 3
  IC50: 48.4 µM
[2]; ShHTL2, average of 3 replicates, read-out: IC50, average
  IC50: 47.4 µM
[2]; ShHTL3, YLG competition, read-out: IC50, replicate 1
  IC50: 16.8 µM
[2]; ShHTL3, YLG competition, read-out: IC50, replicate 2
  IC50: 15.4 µM
[2]; ShHTL3, YLG competition, read-out: IC50, replicate 3
  IC50: 14.7 µM
[2]; ShHTL3, average of 3 replicates, read-out: IC50, average
  IC50: 15.7 µM
[2]; ShHTL4, YLG competition, read-out: IC50, replicate 1
  IC50: 2.17 µM
[2]; ShHTL4, YLG competition, read-out: IC50, replicate 2
  IC50: 2.91 µM
[2]; ShHTL4, YLG competition, read-out: IC50, replicate 3
  IC50: 2.59 µM
[2]; ShHTL4, average of 3 replicates, read-out: IC50, average
  IC50: 2.56 µM
[2]; ShHTL5, YLG competition, read-out: IC50, replicate 1
  IC50: 5.38 µM
[2]; ShHTL5, YLG competition, read-out: IC50, replicate 2
  IC50: 6.82 µM
[2]; ShHTL5, YLG competition, read-out: IC50, replicate 3
  IC50: 5.43 µM
[2]; ShHTL5, average of 3 replicates, read-out: IC50, average
  IC50: 5.88 µM
[2]; ShHTL6, YLG competition, read-out: IC50, replicate 1
  IC50: 9.92 µM
[2]; ShHTL6, YLG competition, read-out: IC50, replicate 2
  IC50: 6.62 µM
[2]; ShHTL6, YLG competition, read-out: IC50, replicate 3
  IC50: 7.62 µM
[2]; ShHTL6, average of 3 replicates, read-out: IC50, average
  IC50: 8.05 µM
[2]; ShHTL8, YLG competition, read-out: IC50, replicate 1
  IC50: 12 µM
[2]; ShHTL8, YLG competition, read-out: IC50, replicate 2
  IC50: 7.84 µM
[2]; ShHTL8, YLG competition, read-out: IC50, replicate 3
  IC50: 5.8 µM
[2]; ShHTL8, average of 3 replicates, read-out: IC50, average
  IC50: 8.54 µM
[2]; ShHTL9, YLG competition, read-out: IC50, replicate 1
  IC50: 10.9 µM
[2]; ShHTL9, YLG competition, read-out: IC50, replicate 2
  IC50: 19 µM
[2]; ShHTL9, YLG competition, read-out: IC50, replicate 3
  IC50: 16.2 µM
[2]; ShHTL9, average of 3 replicates, read-out: IC50, average
  IC50: 15.4 µM
[2]; ShHTL10, YLG competition, read-out: IC50, replicate 1
  IC50: 11.7 µM
[2]; ShHTL10, YLG competition, read-out: IC50, replicate 2
  IC50: 11.6 µM
[2]; ShHTL10, YLG competition, read-out: IC50, replicate 3
  IC50: 12.8 µM
[2]; ShHTL10, average of 3 replicates, read-out: IC50, average
  IC50: 12 µM
[2]; ShHTL11, YLG competition, read-out: IC50, replicate 1
  IC50: 6.48 µM
[2]; ShHTL11, YLG competition, read-out: IC50, replicate 2
  IC50: 5.76 µM
[2]; ShHTL11, YLG competition, read-out: IC50, replicate 3
  IC50: 3.77 µM
[2]; ShHTL11, average of 3 replicates, read-out: IC50, average
  IC50: 5.34 µM
[3]
  half-life at 0.5 mM: 7.71 h
[4]; KAI2C, YLG competition, read-out: IC50, replicate 1
  IC50: 5.99 µM
[4]; KAI2C, YLG competition, read-out: IC50, replicate 2
  IC50: 5.59 µM
[4]; KAI2C, YLG competition, read-out: IC50, replicate 3
  IC50: 5.14 µM
[4]; KAI2C, average of 3 replicates, read-out: IC50, average
  IC50: 5.57 µM
[4]; KAI2d1, YLG competition, read-out: IC50, replicate 1
  IC50: 14.8 µM
[4]; KAI2d1, YLG competition, read-out: IC50, replicate 2
  IC50: 11.8 µM
[4]; KAI2d1, YLG competition, read-out: IC50, replicate 3
  IC50: 14.3 µM
[4]; KAI2d1, average of 3 replicates, read-out: IC50, average
  IC50: 13.6 µM
[4]; KAI2d2, YLG competition, read-out: IC50, replicate 1
  IC50: 41.7 µM
[4]; KAI2d2, YLG competition, read-out: IC50, replicate 2
  IC50: 36.2 µM
[4]; KAI2d2, YLG competition, read-out: IC50, replicate 3
  IC50: 35.4 µM
[4]; KAI2d2, average of 3 replicates, read-out: IC50, average
  IC50: 37.8 µM
[4]; KAI2d3, YLG competition, read-out: IC50, replicate 1
  IC50: 11.9 µM
[4]; KAI2d3, YLG competition, read-out: IC50, replicate 2
  IC50: 8.47 µM
[4]; KAI2d3, YLG competition, read-out: IC50, replicate 3
  IC50: 7.99 µM
[4]; KAI2d3, average of 3 replicates, read-out: IC50, average
  IC50: 9.45 µM
[4]; KAI2d4, YLG competition, read-out: IC50, replicate 1
  IC50: 6.05 µM
[4]; KAI2d4, YLG competition, read-out: IC50, replicate 2
  IC50: 6.25 µM
[4]; KAI2d4, YLG competition, read-out: IC50, replicate 3
  IC50: 8.45 µM
[4]; KAI2d4, average of 3 replicates, read-out: IC50, average
  IC50: 6.92 µM
ShHTL7 [5]
  Kd: 0.79 ± 0.06 µM
